Reference: PubChem BioAssay AID256 (DTP/NCI, 2004)
Where “and” joins values, the source holds several entries; their conditions need not be identical. Identical values can stand only once. Inconclusive results and toxic doses are left out. How the source made its calls: active means survival T/C of 150% or more; inactive means T/C below 125% in these data.

System: CD2F1 mice, L1210 leukemia ip, survival T/C
Experiment: NCI In Vivo Anticancer Drug Screen. Data for tumor model L1210 Leukemia (intraperitoneal) in CD2F1 (CDF1) mice
Details: higher = longer survival
Method in brief: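 Antitumor effect is scored in animals hosting a serially transplanted tumor. Values compare compound-dosed animals against vehicle-only controls as a simple quotient.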

[1] = endpoint: mean survival time, dose: 100.0 mg/kg/injection, schedule: Q04DX003 (ip), vehicle: saline with Tween-80
[2] = endpoint: mean survival time, dose: 200.0 mg/kg/injection, schedule: Q04DX003 (ip), vehicle: saline with Tween-80
[3] = endpoint: mean survival time, dose: 400.0 mg/kg/injection, schedule: Q04DX003 (ip), vehicle: saline with Tween-80
[4] = endpoint: mean survival time, dose: 100.0 mg/kg/injection, schedule: Q04DX003 (ip), vehicle: saline
[5] = endpoint: mean survival time, dose: 200.0 mg/kg/injection, schedule: Q04DX003 (ip), vehicle: saline
[6] = endpoint: mean survival time, dose: 100.0 mg/kg/injection, schedule: Q01DX009 (ip), vehicle: saline with Tween-80
[7] = endpoint: mean survival time, dose: 200.0 mg/kg/injection, schedule: Q01DX009 (ip), vehicle: saline with Tween-80
[8] = endpoint: mean survival time, dose: 400.0 mg/kg/injection, schedule: Q01DX009 (ip), vehicle: saline with Tween-80
[9] = endpoint: mean survival time, dose: 12.5 mg/kg/injection, schedule: Q01DX009 (ip), vehicle: saline with Tween-80
[10] = endpoint: mean survival time, dose: 25.0 mg/kg/injection, schedule: Q01DX009 (ip), vehicle: saline with Tween-80
[11] = endpoint: mean survival time, dose: 50.0 mg/kg/injection, schedule: Q01DX009 (ip), vehicle: saline with Tween-80
[12] = endpoint: mean survival time, dose: 75.0 mg/kg/injection, schedule: Q01DX001 (ip), vehicle: other
[13] = endpoint: mean survival time, dose: 100.0 mg/kg/injection, schedule: Q04DX002 (ip), vehicle: saline with Tween-80
[14] = endpoint: mean survival time, dose: 200.0 mg/kg/injection, schedule: Q04DX002 (ip), vehicle: saline with Tween-80

Measured: T/C

FC(F)(F)c1nc2nc(Cl)c(Cl)nc2[nH]1
inactive: endpoint: mean survival time, dose: 10.0 mg/kg/injection, schedule: Q01DX009 (ip), vehicle: saline with Tween-80 97 % of control | endpoint: mean survival time, dose: 12.5 mg/kg/injection, schedule: Q01DX009 (ip), vehicle: saline 102 % of control | endpoint: mean survival time, dose: 20.0 mg/kg/injection, schedule: Q01DX009 (ip), vehicle: saline with Tween-80 106 % of control | endpoint: mean survival time, dose: 25.0 mg/kg/injection, schedule: Q01DX009 (ip), vehicle: saline 101 % of control | endpoint: mean survival time, dose: 100.0 mg/kg/injection, schedule: Q01DX009 (ip), vehicle: saline 107 % of control | endpoint: median survival time, dose: 30.0 mg/kg/injection, schedule: Q04DX003 (ip), vehicle: saline with Tween-80 106 % of control | endpoint: median survival time, dose: 44.0 mg/kg/injection, schedule: Q04DX003 (ip), vehicle: saline with Tween-80 106 % of control | endpoint: median survival time, dose: 66.0 mg/kg/injection, schedule: Q04DX003 (ip), vehicle: saline with Tween-80 110 % of control

CCCCCCCCN(C)N=Nc1ccc(C(N)=O)cc1
inactive: endpoint: mean survival time, dose: 79.0 mg/kg/injection, schedule: Q01DX009 (ip), vehicle: Klucel (hydroxypropylcellulose) (HPC) 104 % of control | endpoint: mean survival time, dose: 118.0 mg/kg/injection, schedule: Q01DX009 (ip), vehicle: Klucel (hydroxypropylcellulose) (HPC) 114 % of control | endpoint: mean survival time, dose: 175.0 mg/kg/injection, schedule: Q01DX009 (ip), vehicle: Klucel (hydroxypropylcellulose) (HPC) 117 % of control | endpoint: mean survival time, dose: 177.0 mg/kg/injection, schedule: Q01DX009 (ip), vehicle: Klucel (hydroxypropylcellulose) (HPC) 110 % of control | endpoint: mean survival time, dose: 266.0 mg/kg/injection, schedule: Q01DX009 (ip), vehicle: Klucel (hydroxypropylcellulose) (HPC) 122 % of control | endpoint: mean survival time, dose: 400.0 mg/kg/injection, schedule: Q01DX009 (ip), vehicle: Klucel (hydroxypropylcellulose) (HPC) 113 % of control and 118 % of control

O=c1[nH]c(=S)[nH]c2ncn(C3OC(CO)C(O)C3O)c12 (configuration not stated)
inactive: endpoint: mean survival time, dose: 100.0 mg/kg/injection, schedule: Q01DX001 (ip), vehicle: saline 102 % of control | endpoint: mean survival time, dose: 200.0 mg/kg/injection, schedule: Q01DX001 (ip), vehicle: saline 100 % of control | endpoint: mean survival time, dose: 400.0 mg/kg/injection, schedule: Q01DX001 (ip), vehicle: saline 102 % of control

C[C@]12CCCC[C@@H]1CC[C@@H]1[C@@H]2CC[C@]2(C)C(=O)CC[C@@H]12
inactive: [1] 92 % of control | [2] 91 % of control | [3] 89 % of control

CC1=NCC[N-]C(C)(C)CC(C)=NCC[N-]C(C)(C)C1.[Ni+2].[O-][Cl+3]([O-])([O-])O
inactive: [4] 96 % of control | [5] 97 % of control

C=CCOc1ccc(OC)cc1
inactive: [1] 97 % of control | [2] 97 % of control | [3] 92 % of control

Cc1cc(CO)c(O)c(CO)c1
inactive: [6] 91 % of control | [7] 91 % of control | [8] 91 % of control

O=C(/C=C\C=C\c1ccc2c(c1)OCO2)N1CCCCC1
inactive: [9] 111 % of control | [10] 107 % of control | [11] 104 % of control

O=C(Oc1ccccc1Cl)c1ccccc1
inactive: [6] 100 % of control | [1] 105 % of control | [7] 98 % of control | [2] 100 % of control | [8] 108 % of control | [3] 111 % of control

CCOC(=O)Cc1nnc(N)s1
inactive: [1] 96 % of control | [2] 100 % of control | [3] 102 % of control

CC(=O)N/C(=C/c1ccccc1)C(=O)NC(C)(C)C
inactive: [1] 96 % of control | [2] 99 % of control | [3] 89 % of control

CCOC(=O)Nc1cc(NC(c2ccc(Cl)cc2)c2ccc(Cl)cc2)c2[nH]cnc2n1
inactive: [12] 117 % of control

CCCCCCCCCCC(=O)CCCCCC
inactive: endpoint: mean survival time, dose: 100.0 mg/kg/injection, schedule: Q04DX003 (ip), vehicle: other 89 % of control | endpoint: mean survival time, dose: 200.0 mg/kg/injection, schedule: Q04DX003 (ip), vehicle: other 92 % of control | endpoint: mean survival time, dose: 400.0 mg/kg/injection, schedule: Q04DX003 (ip), vehicle: other 118 % of control

Cc1ccc(NCC(=O)O)c([N+](=O)[O-])c1
inactive: [1] 95 % of control | [2] 103 % of control

CCOC(=O)c1ccc(NC(=O)Nc2cccc(NC(C)=O)c2)cc1
inactive: endpoint: mean survival time, dose: 50.0 mg/kg/injection, schedule: Q01DX001 (ip), vehicle: saline with Tween-80 96 % of control | [11] 87 % of control and 91 % of control | endpoint: mean survival time, dose: 50.0 mg/kg/injection, schedule: Q04DX003 (ip), vehicle: saline with Tween-80 90 % of control | endpoint: mean survival time, dose: 100.0 mg/kg/injection, schedule: Q01DX001 (ip), vehicle: saline with Tween-80 92 % of control | [6] 87 % of control and 91 % of control | [13] 87 % of control and 90 % of control | [1] 86 % of control | endpoint: mean survival time, dose: 200.0 mg/kg/injection, schedule: Q01DX001 (ip), vehicle: saline with Tween-80 96 % of control | [7] 91 % of control | [14] 91 % of control | [2] 100 % of control | endpoint: mean survival time, dose: 400.0 mg/kg/injection, schedule: Q01DX001 (ip), vehicle: saline with Tween-80 92 % of control

Cc1c(Cl)c(C)c(Cl)c(O)c1Cl
inactive: [6] 96 % of control | [7] 100 % of control | [8] 87 % of control

C=CC1CC2CC(C1C)C2(C)C (configuration not stated)
inactive: [11] 96 % of control | [6] 100 % of control | [7] 104 % of control

Cc1cc(=O)[nH]c(Nc2ccccc2)n1
inactive: [1] 105 % of control | [2] 97 % of control | [3] 88 % of control

O=C(COc1ccc(Br)cc1)Nc1cc(Cl)ccc1Cl
inactive: [13] 87 % of control | [14] 95 % of control | endpoint: mean survival time, dose: 400.0 mg/kg/injection, schedule: Q04DX002 (ip), vehicle: saline with Tween-80 91 % of control

O=P(OCc1ccccc1)(N(CCCl)CCCl)N1CCCC1 (configuration not stated)
inactive: endpoint: mean survival time, dose: 128.0 mg/kg/injection, schedule: Q01DX Z (ip), vehicle: saline 101 % of control

COc1ccc(/C=C2\SC(=O)NC2=O)cc1
inactive: [1] 102 % of control | [2] 100 % of control

CC(=O)Nc1ccccc1Sc1ccncc1[N+](=O)[O-]
inactive: [6] 100 % of control | [1] 88 % of control | [7] 100 % of control | [2] 92 % of control | [8] 90 % of control | [3] 95 % of control

C[CH2][Ge]([CH2]C)[CH2]C.C[CH2][Ge]([CH2]C)[CH2]C.C[CH2][Ge]([CH2]C)[O][Ge]([CH2]C)[CH2]C
inactive: endpoint: mean survival time, dose: 6.25 mg/kg/injection, schedule: Q01DX009 (ip), vehicle: saline with Tween-80 97 % of control and 106 % of control | [9] 96 % of control and 104 % of control | [10] 97 % of control and 112 % of control | [11] 104 % of control and 112 % of control | [6] 109 % of control

Cc1ccc(S(=O)(=O)[N-]Cl)cc1.[Cl][Pt][Cl]
inactive: endpoint: mean survival time, dose: 4.7 mg/kg/injection, schedule: Q04DX003 (ip), vehicle: saline with Tween-80 95 % of control | endpoint: mean survival time, dose: 9.4 mg/kg/injection, schedule: Q04DX003 (ip), vehicle: saline with Tween-80 100 % of control | endpoint: mean survival time, dose: 18.75 mg/kg/injection, schedule: Q04DX003 (ip), vehicle: saline with Tween-80 100 % of control | endpoint: mean survival time, dose: 37.5 mg/kg/injection, schedule: Q04DX003 (ip), vehicle: saline with Tween-80 103 % of control | endpoint: mean survival time, dose: 75.0 mg/kg/injection, schedule: Q04DX003 (ip), vehicle: saline with Tween-80 103 % of control

O=[N+]([O-])c1ccc(SC(=S)N(c2ccccc2)c2ccccc2)c([N+](=O)[O-])c1
inactive: endpoint: mean survival time, dose: 100.0 mg/kg/injection, schedule: Q01DX001 (ip), vehicle: Klucel (hydroxypropylcellulose) (HPC) 87 % of control | endpoint: mean survival time, dose: 200.0 mg/kg/injection, schedule: Q01DX001 (ip), vehicle: Klucel (hydroxypropylcellulose) (HPC) 91 % of control | endpoint: mean survival time, dose: 400.0 mg/kg/injection, schedule: Q01DX001 (ip), vehicle: Klucel (hydroxypropylcellulose) (HPC) 100 % of control

CCC[CH2][Sn]1([CH2]CCC)[O]OC(c2ccc(C(=O)OCC)cc2)[O]1 (configuration not stated)
inactive: endpoint: mean survival time, dose: 1.56 mg/kg/injection, schedule: Q04DX002 (ip), vehicle: other 101 % of control | endpoint: mean survival time, dose: 3.13 mg/kg/injection, schedule: Q04DX002 (ip), vehicle: other 116 % of control

O=[N+]([O-])c1ccc(S(=O)(=O)Cc2ccccc2)c([N+](=O)[O-])c1
inactive: [12] 98 % of control | endpoint: mean survival time, dose: 150.0 mg/kg/injection, schedule: Q01DX001 (ip), vehicle: other 93 % of control | endpoint: mean survival time, dose: 300.0 mg/kg/injection, schedule: Q01DX001 (ip), vehicle: other 106 % of control

CC(O)C(C)(C)CO (configuration not stated)
inactive: [4] 88 % of control | [5] 88 % of control | endpoint: mean survival time, dose: 400.0 mg/kg/injection, schedule: Q04DX003 (ip), vehicle: saline 93 % of control

Nc1ncnc(N)c1N=O
inactive: [1] 96 % of control | [2] 89 % of control

Nc1ccc(CCCCc2ccc(Cl)cc2Cl)cc1
inactive: [1] 104 % of control | [2] 110 % of control
